Source: PMC8869984, “Multifunctional Silver(I) Complexes with Metronidazole Drug Reveal Antimicrobial Properties and Antitumor Activity against Human Hepatoma and Colorectal Adenocarcinoma Cells” (Cancers, 2022)

Tests used:
[1] = tested on: HepG2 cells; test: MTT assay (mitochondrial activity), 72 h exposure; assay type: cell-based, human; conditions: Figure 6
Protocol: The human hepatoma (HepG2) and colorectal adenocarcinoma (Caco-2) cells were purchased from the American Type Culture Collection: ATCC HB-8065 and ATCC HTB-37, respectively. These cells were cultured in Minimum Essential Medium Eagle (MEME) (ATCC). The murine fibroblasts cell line (Balb/c 3T3 clone A31) (gift from the Department of Swine Diseases of the National Veterinary Research Institute in Pulawy) was cultured in Dulbecco’s Modified Eagle Medium (DMEM) (ATCC). The media were supplemented with 10% BCS (Balb/c 3T3), 10% FBS (HepG2), 20% FBS (Caco-2), 1% L-glutamine, 1% antibiotic solution. The cells were maintained in 75 cm^2 cell culture flasks (NUNC) in a humidified incubator at 37 °C in an atmosphere of 5% CO2. The medium was refreshed every two or three days, and the cells were trypsinized by 0.25% trypsin–0.02% EDTA after reaching 70–80% confluence. Single cell suspensions were prepared and adjusted to a density of 2 × 10^5 cell/mL^−1 (HepG2), 1 × 10^5 cell/mL^−1 (Caco-2) and 5 × 10^4 cell/mL^−1 (Balb/c 3T3). The cell suspension was transferred to 96-well plates (100 µL/well) and incubated for 24 h before the exposure to the studied compounds. Stock solutions of ligands and metal complexes were prepared in sterile water and diluted with culture medium to obtain a concentration range from 0.1 to 10 µM. The final concentration of sterile water was 0.1% in the medium. […] As a negative control, cultured cells were grown in the absence of studied compounds. Each concentration was tested in six replicates in three independent experiments. Cytotoxicity was assessed after 72 h of exposure of the cells to compounds. The medium was not changed during the incubation time.
The metabolic activity of living cells was assessed by the measurement of the activity of dehydrogenases. […] The plate was shaken for 15 min at room temperature and transferred to a microplate reader Synergy HTX multi-mode reader (BioTek® Instruments Inc., Winooski, VT, USA) to measure the absorbance at 570 nm, using a blank as a reference. Cytotoxicity was expressed as a percentage of the negative control. […]

[2] = tested on: B. fragilis ATCC 10240; test: micro-dilution broth method (MIC, MBC); assay type: cell-based, Bacteroides fragilis
[3] = tested on: K. pneumoniae ATCC 13883; test: micro-dilution broth method (MIC, MBC); assay type: cell-based, Klebsiella pneumoniae
[4] = tested on: E. coli ATCC 25922; test: micro-dilution broth method (MIC, MBC); assay type: cell-based, Escherichia coli
[5] = tested on: V. parvula ATCC 10790; test: micro-dilution broth method (MIC, MBC); assay type: cell-based, Veillonella parvula
[6] = tested on: C. jejunii ATCC 33291; test: micro-dilution broth method (MIC, MBC); assay type: cell-based, Campylobacter jejunii
[7] = tested on: S. aureus ATCC 25923; test: micro-dilution broth method (MIC, MBC); assay type: cell-based, Staphylococcus aureus
[8] = tested on: F. nucleatum ATCC 25586; test: micro-dilution broth method (MIC, MBC); assay type: cell-based, Fusobacterium nucleatum
[9] = tested on: E. faecalis ATCC 29212; test: micro-dilution broth method (MIC, MBC); assay type: cell-based, Enterococcus faecalis
[10] = tested on: C. perfringens ATCC 13124; test: microbe, parasite or virus in culture; assay type: cell-based, Clostridium perfringens
[11] = tested on: P. aeruginosa ATCC 9027; test: micro-dilution broth method (MIC, MBC); assay type: cell-based, Pseudomonas aeruginosa
[12] = tested on: S. epidermidis ATCC 12228; test: micro-dilution broth method (MIC, MBC); assay type: cell-based, Staphylococcus epidermidis
[13] = tested on: P. acnes ATCC 11827; test: micro-dilution broth method (MIC, MBC); assay type: cell-based, Propionibacterium acnes
[14] = tested on: M. luteus ATCC 10240; test: micro-dilution broth method (MIC, MBC); assay type: cell-based, Micrococcus luteus
[15] = tested on: B. subtilis ATCC 6633; test: micro-dilution broth method (MIC, MBC); assay type: cell-based, Bacillus subtilis
[16] = tested on: P. intermedia ATCC 25611; test: micro-dilution broth method (MIC, MBC); assay type: cell-based
[17] = B. fragilis ATCC 10240, value in brackets
[18] = K. pneumoniae ATCC 13883, value in brackets
[19] = E. coli ATCC 25922, value in brackets
[20] = V. parvula ATCC 10790, value in brackets
[21] = C. jejunii ATCC 33291, value in brackets
[22] = S. aureus ATCC 25923, value in brackets
[23] = F. nucleatum ATCC 25586, value in brackets
[24] = E. faecalis ATCC 29212, value in brackets
[25] = C. perfringens ATCC 13124, value in brackets
[26] = P. aeruginosa ATCC 9027, value in brackets
[27] = S. epidermidis ATCC 12228, value in brackets
[28] = P. acnes ATCC 11827, value in brackets
[29] = M. luteus ATCC 10240, value in brackets
[30] = B. subtilis ATCC 6633, value in brackets
[31] = P. intermedia ATCC 25611, value in brackets

Cc1ncc([N+](=O)[O-])n1CCO.Cc1ncc([N+](=O)[O-])n1CCO.Cc1ncc([N+](=O)[O-])n1CCO.Cc1ncc([N+](=O)[O-])n1CCO.O=S(=O)([O-])[O-].[Ag+].[Ag+] [[Ag(MTZ)2]2SO4]
lowest concentration with significant (p ≤ 0.05) effect [1]: 5.0 µM
MBC ([2]; B. fragilis ATCC 10240): 0.98 mg/L
MIC ([2]; B. fragilis ATCC 10240): 0.24 mg/L
MBC [2, 17]: 0.0009 µM/mL
MIC [2, 17]: 0.0002 µM/mL
MBC ([3]; K. pneumoniae ATCC 13883): 31.3 mg/L
MIC ([3]; K. pneumoniae ATCC 13883): 15.6 mg/L
MBC [3, 18]: 0.03 µM/mL
MIC [3, 18]: 0.014 µM/mL
MBC ([4]; E. coli ATCC 25922): 31.3 mg/L
MIC ([4]; E. coli ATCC 25922): 15.6 mg/L
MBC [4, 19]: 0.03 µM/mL
MIC [4, 19]: 0.014 µM/mL
MBC ([5]; V. parvula ATCC 10790): 3.9 mg/L
MIC ([5]; V. parvula ATCC 10790): 3.9 mg/L
MBC [5, 20]: 0.004 µM/mL
MIC [5, 20]: 0.004 µM/mL
MBC ([6]; C. jejunii ATCC 33291): 500 mg/L
MBC [6, 21]: 0.46 µM/mL
MIC [6, 21]: 0.23 µM/mL
MIC ([6]; C. jejunii ATCC 33291, listed as [Ag(MTZ)2]2SO4·5H2O): 250 mg/L
MBC ([7]; S. aureus ATCC 25923): 15.6 mg/L
MIC ([7]; S. aureus ATCC 25923): 15.6 mg/L
MBC [7, 22]: 0.014 µM/mL
MIC [7, 22]: 0.014 µM/mL
MBC ([8]; F. nucleatum ATCC 25586): 0.49 mg/L
MIC ([8]; F. nucleatum ATCC 25586): 0.49 mg/L
MBC [8, 23]: 0.0004 µM/mL
MIC [8, 23]: 0.0004 µM/mL
MBC ([9]; E. faecalis ATCC 29212): 62.5 mg/L
MIC ([9]; E. faecalis ATCC 29212): 31.3 mg/L
MBC [9, 24]: 0.06 µM/mL
MIC [9, 24]: 0.03 µM/mL
MBC ([10]; C. perfringens ATCC 13124): 3.9 mg/L
MIC ([10]; C. perfringens ATCC 13124): 1.95 mg/L
MBC [10, 25]: 0.004 µM/mL
MIC [10, 25]: 0.002 µM/mL
MBC ([11]; P. aeruginosa ATCC 9027): 15.6 mg/L
MIC ([11]; P. aeruginosa ATCC 9027): 7.8 mg/L
MBC [11, 26]: 0.014 µM/mL
MIC [11, 26]: 0.008 µM/mL
MBC ([12]; S. epidermidis ATCC 12228): 15.6 mg/L
MIC ([12]; S. epidermidis ATCC 12228): 7.8 mg/L
MBC [12, 27]: 0.014 µM/mL
MIC [12, 27]: 0.007 µM/mL
MBC ([13]; P. acnes ATCC 11827): 500 mg/L
MBC [13, 28]: 0.46 µM/mL
MIC [13, 28]: 0.12 µM/mL
MIC ([14]; M. luteus ATCC 10240): 7.8 mg/L
MBC [14, 29]: 0.12 µM/mL
MIC [14, 29]: 0.007 µM/mL
MBC ([15]; B. subtilis ATCC 6633): 15.6 mg/L
MIC ([15]; B. subtilis ATCC 6633): 15.6 mg/L
MBC [15, 30]: 0.014 µM/mL
MIC [15, 30]: 0.014 µM/mL
MBC ([16]; P. intermedia ATCC 25611): 15.6 mg/L
MIC ([16]; P. intermedia ATCC 25611): 0.98 mg/L
MBC [16, 31]: 0.014 µM/mL
MIC [16, 31]: 0.0009 µM/mL
